The conditions of data set [1]: cited from earlier work.
Data set [2] is described as follows: Chemical (hydrolytic) stability in buffered aqueous solutions. The data set is classed as physicochemical. Conditions: 24 hour incubation in pH 4 buffer, 37° C. The procedure: (§1) The chemical stability of the docetaxel derivatives was determined in aqueous solutions at different pH values and temperatures, and in biological media (mouse plasma). Aliquots of the docetaxel derivatives in acetonitrile were mixed with buffered citrate/HEPES (10 mM/10 mM) solutions at pH 4.0 and 7.5, or in mouse plasma in 1 mL glass HPLC sample vials sealed with Teflon-lined caps (final volume 0.25 ml, final docetaxel derivative concentration 50 µg/ml). Drug stability was determined 1, 4 and 24 hrs after incubation at 37° C. by UPLC-UV. At the indicated time points, a 3-fold excess of methanol/0.1% TFA was added to the sample. Citrate/HEPES buffered samples were analyzed by UHPLC as described above. For plasma samples, proteins precipitated by the addition of methanol/0.1% TFA pelleted by centrifugation at 14,000×g and supernatants were analyzed for the drug derivatives. Heparanized mouse plasma was diluted to 50% with 100 mM sodium-phosphate buffer to keep the pH constant throughout the experiment.
(§2) To be suitable for formulation in LN, derivatives must be stable at pH 4 (the pH present inside the LN carrier). In addition, prodrug derivatives should readily form the active drug under physiological conditions (e.g., at pH 7.4 and/or in the presence of endogenous enzymes) once released from the LN. […] TD1-3 and TD7 were selected for loading into LN and testing of such LN for drug release in vitro.

A short description of data set [3]: Stability in mouse plasma. The data set is classed as in vitro ADME. As to conditions: 24 hour incubation in mouse plasma, 37° C. The procedure:
as §1, §2

Data set [4] can be described thus: Chemical (hydrolytic) stability in buffered aqueous solutions. The data set is classed as physicochemical. As to conditions: 24 hour incubation in pH 7.4 buffer, 37° C.
Data set [5] is described as follows: Kinetic aqueous solubility of docetaxel derivatives in acetate buffer. As to conditions: for solubility: kinetic from dmso stock.
Method: An aliquot was diluted 10-fold with 10 mM acetate buffer (pH 5) and the pH was checked and re-adjusted as necessary to reach pH 5. Alternatively, 10 mg of each compound was weighed into a glass vial, and 2 mL of 10 mM acetate buffer (pH 5) was added to the compound, followed by sonication of the suspension for minutes. The precipitate was then removed using Microcon MY100 filters (MW cut-off 100,000 Da) and the filtrate analyzed by UPLC-UV for drug content. The measured solubilities are kinetic solubilities determined under non-equilibrium conditions.
Data set [6] is described as follows: In vitro release of docetaxel derivatives from LN in mouse plasma. As to conditions: 37° C., same prodrug-to-lipid ratio. The data set is classed as in vitro ADME. How it is done: In vitro release of docetaxel derivatives from LN was assessed in mouse plasma. Drug retention was determined by comparison of the initial prodrug-to-lipid ratio with the prodrug-to-lipid ratios found at different time points. […] LN formulations were mixed with mouse plasma at a final lipid concentration of 0.75 mg/ml, followed by incubation at 37° C. At various time points, aliquots were taken and run over Sephadex G-50 spin columns to remove the unentrapped prodrug (Pick, Arch. Biochem. Biophys., 212:186-194 (1981)). The derivative and lipid concentrations in the eluates were determined by UHPLC and liquid scintillation counting, respectively.

The mark [7] stands for this setting: 10 mM acetate buffer with 10% (v/v) ethanol, pH 5, aqueous with cosolvent or surfactant or cyclodextrin.
The mark [8] stands for this setting: 10 mM acetate buffer, pH 5, aqueous buffer.

Here are results for 19 compounds from US8545876B1, “Modified drugs for use in liposomal nanoparticles” (The University of British Columbia, priority 2008, dated 2013).

Values after ≈ are worked out from the molar mass of the structure shown.

In the case of `CCCCC(=O)OCC(=O)[C@]1(O)Cc2c(O)c3c(c(O)c2[C@@H](O[C@H]2C[C@H](NC(=O)C(F)(F)F)[C@H](O)[C@H](C)O2)C1)C(=O)c1c(OC)cccc1C3=O` [Valrubicin], in data set [1], the “Solubility in Water” value is recorded as “insoluble”.

In the case of `C=CC[C@@H]1/C=C(\C)C[C@H](C)C[C@H](OC)[C@H]2O[C@@](O)(C(=O)C(=O)N3CCCC[C@H]3C(=O)O[C@H](/C(C)=C/[C@@H]3CC[C@@H](O)[C@H](OC)C3)[C@H](C)[C@@H](O)CC1=O)[C@H](C)C[C@@H]2OC` [Tacrolimus], in data set [1], the “Solubility in Water” value was “insoluble”.

As a reminder, the solubility is the dissolved amount per volume that the medium holds. A low value points to a poorly soluble substance. `CC(=O)O[C@@]12CO[C@@H]1C[C@H](O)[C@@]1(C)C(=O)[C@H](O)C3=C(C)[C@@H](OC(=O)[C@H](OC(=O)CN4CCOCC4)[C@@H](NC(=O)OC(C)(C)C)c4ccccc4)C[C@@](O)([C@@H](OC(=O)c4ccccc4)C12)C3(C)C` (stereo partly drawn) [TD5, Morpholino acetic acid ester]: the “Prodrug levels (% remaining), pH 4” value in data set [2] worked out at 81%. In addition, the “Prodrug levels (% remaining), Plasma” value in data set [3] is recorded as 45%. Also, the “Prodrug levels (% remaining), pH 7.4” value in data set [4] is listed as 64%. In addition, the figures for the solubility in data set [5] (setting [7]) and in data set [5] (setting [8]) were 300 µg/mL (≈ 321 µM) and 140 µg/mL (≈ 150 µM), respectively.

For `C[C@@H]1C[C@H]2[C@@H]3CCC4=CC(=O)C=C[C@]4(C)[C@@]3(F)[C@@H](O)C[C@]2(C)[C@@]1(O)C(=O)CO` [Dexamethasone], the “Solubility in Water” value in data set [1] was 89 µg/mL (≈ 227 µM).

As to `CC(=O)O[C@@]12CO[C@@H]1C[C@H](O)[C@@]1(C)C(=O)[C@H](O)C3=C(C)[C@@H](OC(=O)[C@H](OC(=O)CN4CCN(C)CC4)[C@@H](NC(=O)OC(C)(C)C)c4ccccc4)C[C@@](O)([C@@H](OC(=O)c4ccccc4)C12)C3(C)C` (stereo partly drawn) [TD2, N-methyl-piperazinyl acetic acid ester], the “Prodrug levels (% remaining), pH 4” value in data set [2] came out at 99%. In addition, the “Prodrug levels (% remaining), Plasma” value in data set [3] stood at 31%. The “in vitro retention / release rate in DSPC/chol LN relative to TD1” value in data set [6] is listed as “released at a slightly faster rate”. Further, in data set [4], the “Prodrug levels (% remaining), pH 7.4” value came to 59%. Moreover, the solubility in data set [5] (setting [7]) was determined as 25000 µg/mL (≈ 26400 µM); in data set [5] (setting [8]) it was 2000 µg/mL (≈ 2110 µM).

`CC(C)c1cccc(C(C)C)c1O` [Propofol]: in data set [1], the “Solubility in Water” value was 124 µg/mL (≈ 696 µM).

`CC(=O)O[C@@]12CO[C@@H]1C[C@H](O)[C@@]1(C)C(=O)[C@H](O)C3=C(C)[C@@H](OC(=O)[C@H](OC(=O)CCCN4CCOCC4)[C@@H](NC(=O)OC(C)(C)C)c4ccccc4)C[C@@](O)([C@@H](OC(=O)c4ccccc4)C12)C3(C)C` (stereo partly drawn) [TD4, Morpholino butanoic acid ester]: in data set [2], the “Prodrug levels (% remaining), pH 4” value was determined as 98%. In addition, the “Prodrug levels (% remaining), Plasma” value in data set [3] is given as 64%. In addition, in data set [4], the “Prodrug levels (% remaining), pH 7.4” value was 92%. The compound also returned a solubility in data set [5] (setting [8]) of 120 µg/mL (≈ 125 µM). In addition, the “Solub. in 10 mM acetate pH 5” value in data set [5] (pH 5, no ethanol, kinetic solubility) was “extremely low solubility”.

`CC(=O)O[C@@]12CO[C@@H]1C[C@H](O)[C@@]1(C)C(=O)[C@H](O)C3=C(C)[C@@H](OC(=O)[C@H](OC(=O)CCN4CCOCC4)[C@@H](NC(=O)OC(C)(C)C)c4ccccc4)C[C@@](O)([C@@H](OC(=O)c4ccccc4)C12)C3(C)C` (stereo partly drawn) [TD6, Morpholino propionic acid ester]: in data set [2], the “Prodrug levels (% remaining), pH 4” value worked out at 68%. Further, the “Prodrug levels (% remaining), Plasma” value in data set [3] is given as 0%. Further, in data set [4], the “Prodrug levels (% remaining), pH 7.4” value was found to be 18%. The values for the solubility in data set [5] (setting [7]) and in data set [5] (setting [8]) were 1500 µg/mL (≈ 1580 µM) and 480 µg/mL (≈ 506 µM), respectively.

For `CC(C)CN(C[C@@H](O)[C@H](Cc1ccccc1)NC(=O)O[C@H]1CCOC1)S(=O)(=O)c1ccc(N)cc1` [Amprenavir], the “Solubility in Water” value in data set [1] was 36 µg/mL (≈ 71.2 µM).

Take `CC(=O)O[C@@]12CO[C@@H]1C[C@H](O)[C@@]1(C)C(=O)[C@H](O)C3=C(C)[C@@H](OC(=O)[C@H](OC(=O)CCCCN4CCCCC4)[C@@H](NC(=O)OC(C)(C)C)c4ccccc4)C[C@@](O)([C@@H](OC(=O)c4ccccc4)C12)C3(C)C` (stereo partly drawn) [TD9, Piperidinyl pentanoic acid ester]: the “Prodrug levels (% remaining), pH 4” value in data set [2] was 99%. In addition, the “Prodrug levels (% remaining), Plasma” value in data set [3] is reported as “no effect”; in data set [3] (listed as TD-9) it was 60%. In addition, the “Prodrug levels (% remaining), pH 7.4” value in data set [4] was 65%. In addition, the solubility was determined as 1000 µg/mL (≈ 1030 µM) in data set [5] (pH 5, aqueous buffer) and 2300 µg/mL (≈ 2360 µM) in data set [5] (pH 5, aqueous with cosolvent or surfactant or cyclodextrin).

With `CC(=O)O[C@@]12CO[C@@H]1C[C@H](O)[C@@]1(C)C(=O)[C@H](O)C3=C(C)[C@@H](OC(=O)[C@H](OC(=O)CN4CCCCC4)[C@@H](NC(=O)OC(C)(C)C)c4ccccc4)C[C@@](O)([C@@H](OC(=O)c4ccccc4)C12)C3(C)C` (stereo partly drawn) [TD8, Piperidinyl acetic acid ester], the “Prodrug levels (% remaining), pH 4” value in data set [2] was found to be 78%. In data set [3], the “Prodrug levels (% remaining), Plasma” value is given as 4%. The “Prodrug levels (% remaining), pH 7.4” value in data set [4] came to 36%. The solubility in data set [5] (pH 5, aqueous buffer) was found to be 500 µg/mL (≈ 536 µM).

Turning to `CC(=O)O[C@@]12CO[C@@H]1C[C@H](O)[C@@]1(C)C(=O)[C@H](O)C3=C(C)[C@@H](OC(=O)[C@H](OC(=O)CCCN4CCCCC4)[C@@H](NC(=O)OC(C)(C)C)c4ccccc4)C[C@@](O)([C@@H](OC(=O)c4ccccc4)C12)C3(C)C` (stereo partly drawn) [TD7, Piperidinyl butanoic acid ester], the “Prodrug levels (% remaining), pH 4” value in data set [2] was found to be 94%. Also, the “Prodrug levels (% remaining), Plasma” value in data set [3] was found to be 8%. The “in vitro retention / release rate in DSPC/chol LN relative to TD1” value in data set [6] is “released at a rate mirroring that of TD1”. In addition, the “Prodrug levels (% remaining), pH 7.4” value in data set [4] worked out at 13%. For the same compound, in data set [5] (pH 5, aqueous buffer), the concentration in solution (solubility) came to 1900 µg/mL (≈ 1980 µM).

For the compound `CO[C@H]1C[C@@H]2CC[C@@H](C)[C@@](O)(O2)C(=O)C(=O)N2CCCC[C@H]2C(=O)O[C@H]([C@H](C)C[C@@H]2CC[C@@H](O)[C@H](OC)C2)CC(=O)[C@H](C)/C=C(\C)[C@@H](O)[C@@H](OC)C(=O)[C@H](C)C[C@H](C)/C=C/C=C/C=C/1C` [Sirolimus], the “Solubility in Water” value in data set [1] is on record as “insoluble in water”.

As for `C[C@]12C=CC(=O)C=C1CC[C@@H]1[C@@H]2C(=O)C[C@@]2(C)[C@H]1CC[C@]2(O)C(=O)CO` [Prednisone], the “Solubility in Water” value in data set [1] was 312 µg/mL (≈ 870 µM).

Regarding `C=C1/C(=C\C=C2/CCC[C@]3(C)[C@@H]([C@H](C)/C=C/[C@H](C)C(C)C)CC[C@@H]23)C[C@@H](O)C[C@@H]1O` [Doxercalciferol], the “Solubility in Water” value in data set [1] is on record as “relatively insoluble”.

Turning to `C[C@H](/C=C/[C@H](C)C(C)(C)O)[C@H]1CC[C@H]2/C(=C/C=C3C[C@@H](O)C[C@H](O)C3)CCC[C@]12C` [Paricalcitol], in data set [1], the “Solubility in Water” value was 6.8 µg/mL (≈ 16.3 µM).

With `COc1c(C)c2c(c(O)c1C/C=C(\C)CCC(=O)O)C(=O)OC2` [Mycophenolic acid], the “Solubility in Water” value in data set [1] is listed as “insoluble”.

In turn, `CC(=O)O[C@@]12CO[C@@H]1C[C@H](OC(=O)CCCN1CCN(C)CC1)[C@@]1(C)C(=O)[C@H](O)C3=C(C)[C@@H](OC(=O)[C@H](O)[C@@H](NC(=O)OC(C)(C)C)c4ccccc4)C[C@@](O)([C@@H](OC(=O)c4ccccc4)C12)C3(C)C` (stereo partly drawn) [TD10, 7-O-(N-methyl-piperazinylbutanoic acid ester)] came in with a solubility in data set [5] (pH 5, aqueous buffer) of 3000 µg/mL (≈ 3070 µM).

For the compound `C[C@@H]1[C@H](O)[C@@H](C)/C=C/C=C/C=C/C=C/C=C/C=C/C=C/[C@H](O[C@@H]2O[C@H](C)[C@@H](O)[C@H](N)[C@@H]2O)C[C@@H]2O[C@](O)(C[C@@H](O)C[C@@H](O)[C@H](O)CC[C@@H](O)C[C@@H](O)CC(=O)O[C@H]1C)C[C@H](O)[C@H]2C(=O)O` [Amphotericin B], the “Solubility in Water” value in data set [1] was 750 µg/mL (≈ 812 µM).
